Test results from ChEMBL document CHEMBL1201862, “PubChem BioAssay data set” (2004).
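In this assay, cells in 96-well plates receive the compound at five concentrations for 48 hours. Endpoints are linearly interpolated between the surrounding concentrations. At the GI50, growth is halved.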 The source made the active and inactive calls. No stated cut-off is given here; in the data, active = GI50 up to about 1.1 µM and inactive = higher.

Experiments:
Assay in all cases: growth of human tumour cells (NCI), 48 h
HCT-116 = system: HCT-116
HOP-62 = system: HOP-62
TK-10 = system: TK-10
A498 = system: A498
UACC-62 = system: UACC-62
NCI-H23 = system: NCI-H23
SF-295 = system: SF-295
HT-29 = system: HT-29
SR = system: SR
COLO 205 = system: COLO 205
EKVX = system: EKVX
OVCAR-8 = system: OVCAR-8
IGROV-1 = system: IGROV-1
HOP-92 = system: HOP-92
OVCAR-5 = system: OVCAR-5
MCF7 = system: MCF7
OVCAR-3 = system: OVCAR-3
NCI-H522 = system: NCI-H522
PC-3 = system: PC-3
K562 = system: K562

Row | SMILES | GI50 (HCT-116) | GI50 (HOP-62) | GI50 (TK-10) | GI50 (A498) | GI50 (UACC-62) | GI50 (NCI-H23) | GI50 (SF-295) | GI50 (HT-29) | GI50 (SR) | GI50 (COLO 205) | GI50 (EKVX) | GI50 (OVCAR-8) | GI50 (IGROV-1) | GI50 (HOP-92) | GI50 (OVCAR-5) | GI50 (MCF7) | GI50 (OVCAR-3) | GI50 (NCI-H522) | GI50 (PC-3) | GI50 (K562)
1 | CC1=CC(=O)C2=C(C)CCC3C(C)C(=O)OC3C12 (stereo not drawn) | > 100 µM (inactive) | > 100 µM (inactive) | > 100 µM (inactive) | > 100 µM (inactive) | > 100 µM (inactive) | > 100 µM (inactive) | > 100 µM (inactive) | > 100 µM (inactive) | 48 µM (inactive) | > 100 µM (inactive) | > 100 µM (inactive) | > 100 µM (inactive) | > 100 µM (inactive) | > 100 µM (inactive) | > 100 µM (inactive) | > 100 µM (inactive) | > 100 µM (inactive) | > 100 µM (inactive) | > 100 µM (inactive) | –
2 | COC(=NC(C)C)NC(C)C | > 100 µM (inactive) | > 100 µM (inactive) | > 100 µM (inactive) | > 100 µM (inactive) | > 100 µM (inactive) | > 100 µM (inactive) | – | – | 77.3 µM (inactive) | > 100 µM (inactive) | > 100 µM (inactive) | > 100 µM (inactive) | > 100 µM (inactive) | > 100 µM (inactive) | > 100 µM (inactive) | > 100 µM (inactive) | – | – | > 100 µM (inactive) | > 100 µM (inactive)
3 | O=C(NCCCl)Nc1ccccc1 | > 100 µM (inactive) | > 100 µM (inactive) | – | > 100 µM (inactive) | > 100 µM (inactive) | > 100 µM (inactive) | > 100 µM (inactive) | > 100 µM (inactive) | > 100 µM (inactive) | > 100 µM (inactive) | > 100 µM (inactive) | > 100 µM (inactive) | > 100 µM (inactive) | > 100 µM (inactive) | > 100 µM (inactive) | > 100 µM (inactive) | > 100 µM (inactive) | > 100 µM (inactive) | > 100 µM (inactive) | > 100 µM (inactive)
4 | CC(C)(CC(=O)Nc1ccccc1)C(=O)O | > 100 µM (inactive) | > 100 µM (inactive) | > 100 µM (inactive) | > 100 µM (inactive) | > 100 µM (inactive) | > 100 µM (inactive) | > 100 µM (inactive) | > 100 µM (inactive) | > 100 µM (inactive) | > 100 µM (inactive) | > 100 µM (inactive) | > 100 µM (inactive) | > 100 µM (inactive) | > 100 µM (inactive) | > 100 µM (inactive) | > 100 µM (inactive) | > 100 µM (inactive) | – | > 100 µM (inactive) | > 100 µM (inactive)
5 | O=C1c2cc3c(cc2CC12Cc1ccc4c(c1C2=O)CCCC4)CCCC3 (stereo not drawn) | 27.7 µM (inactive) | 50.6 µM (inactive) | > 100 µM (inactive) | 21.4 µM (inactive) | – | 79.1 µM (inactive) | 92.5 µM (inactive) | > 100 µM (inactive) | > 100 µM (inactive) | – | > 100 µM (inactive) | 67 µM (inactive) | 80.7 µM (inactive) | 21.4 µM (inactive) | > 100 µM (inactive) | > 100 µM (inactive) | 21.1 µM (inactive) | 85.7 µM (inactive) | > 100 µM (inactive) | > 100 µM (inactive)
6 | Cc1cccc2c1C(=O)[C@](C)([C@]1(C)Nc3cccc(C)c3C1=O)N2 | 56.6 µM (inactive) | 23.3 µM (inactive) | – | 60.5 µM (inactive) | 28.1 µM (inactive) | 25.6 µM (inactive) | 20.8 µM (inactive) | 29.1 µM (inactive) | 17.7 µM (inactive) | 19.7 µM (inactive) | 23.7 µM (inactive) | 24 µM (inactive) | 33.5 µM (inactive) | 27.3 µM (inactive) | 24.3 µM (inactive) | 45.4 µM (inactive) | 29.7 µM (inactive) | 28.6 µM (inactive) | 14.4 µM (inactive) | 30.8 µM (inactive)
7 | CCOC(=O)c1c(N)sc2c1C(C(=O)OCC)CCC2 (stereo not drawn) | 79.8 µM (inactive) | > 100 µM (inactive) | > 100 µM (inactive) | 12.1 µM (inactive) | > 100 µM (inactive) | > 100 µM (inactive) | – | > 100 µM (inactive) | 66.7 µM (inactive) | > 100 µM (inactive) | 55.8 µM (inactive) | > 100 µM (inactive) | > 100 µM (inactive) | > 100 µM (inactive) | > 100 µM (inactive) | > 100 µM (inactive) | – | – | 68.1 µM (inactive) | 76.6 µM (inactive)
8 | CN(C)CCOc1ccc2[nH]c(C(=O)N3CC(CCl)c4c3cc(NC(=O)OCc3ccc([N+](=O)[O-])cc3)c3ccccc43)cc2c1 (stereo not drawn) | 0.794 µM (active) | 1.47 µM (inactive) | 14.2 µM (inactive) | 1.85 µM (inactive) | 1.83 µM (inactive) | 1.36 µM (inactive) | 1.6 µM (inactive) | – | 0.533 µM (active) | 1.64 µM (inactive) | 1.73 µM (inactive) | 0.483 µM (active) | 1.45 µM (inactive) | 1.5 µM (inactive) | 1.6 µM (inactive) | 0.211 µM (active) | 1.63 µM (inactive) | 1.12 µM (inactive) | 1.46 µM (inactive) | 0.237 µM (active)
9 | Cc1cccc2c1CC1(Cc3c(C)cccc3C1=O)C2=O | > 100 µM (inactive) | > 100 µM (inactive) | > 100 µM (inactive) | > 100 µM (inactive) | – | > 100 µM (inactive) | > 100 µM (inactive) | > 100 µM (inactive) | > 100 µM (inactive) | – | > 100 µM (inactive) | > 100 µM (inactive) | > 100 µM (inactive) | > 100 µM (inactive) | > 100 µM (inactive) | > 100 µM (inactive) | > 100 µM (inactive) | > 100 µM (inactive) | > 100 µM (inactive) | > 100 µM (inactive)
10 | c1ccc(C2=NCCc3cc4c(cc32)OCO4)cc1 | – | > 100 µM (inactive) | > 100 µM (inactive) | > 100 µM (inactive) | > 100 µM (inactive) | > 100 µM (inactive) | > 100 µM (inactive) | – | > 100 µM (inactive) | > 100 µM (inactive) | > 100 µM (inactive) | > 100 µM (inactive) | > 100 µM (inactive) | – | > 100 µM (inactive) | > 100 µM (inactive) | > 100 µM (inactive) | > 100 µM (inactive) | > 100 µM (inactive) | –
11 | C=CC(Br)(CBr)CCC1OC1(C)C (stereo not drawn) | 17 µM (inactive) | 18.9 µM (inactive) | 20.2 µM (inactive) | 21.7 µM (inactive) | – | 16.3 µM (inactive) | 16.4 µM (inactive) | 17.4 µM (inactive) | 26.9 µM (inactive) | 18.7 µM (inactive) | 20.3 µM (inactive) | – | 13.2 µM (inactive) | 14.4 µM (inactive) | 18.9 µM (inactive) | 14.1 µM (inactive) | 19.5 µM (inactive) | 17.2 µM (inactive) | 16.5 µM (inactive) | 37.9 µM (inactive)
12 | COc1cc2c3c(c1O)-c1c(ccc(OC)c1OC)CC3N(C)CC2 (stereo not drawn) | > 100 µM (inactive) | – | > 100 µM (inactive) | > 100 µM (inactive) | > 100 µM (inactive) | > 100 µM (inactive) | > 100 µM (inactive) | 77.4 µM (inactive) | > 100 µM (inactive) | > 100 µM (inactive) | > 100 µM (inactive) | > 100 µM (inactive) | > 100 µM (inactive) | > 100 µM (inactive) | > 100 µM (inactive) | > 100 µM (inactive) | > 100 µM (inactive) | > 100 µM (inactive) | > 100 µM (inactive) | –
13 | O=C(O)C(O)c1ccc(F)cc1 (stereo not drawn) | > 100 µM (inactive) | > 100 µM (inactive) | > 100 µM (inactive) | > 100 µM (inactive) | > 100 µM (inactive) | > 100 µM (inactive) | > 100 µM (inactive) | > 100 µM (inactive) | > 100 µM (inactive) | – | > 100 µM (inactive) | > 100 µM (inactive) | > 100 µM (inactive) | > 100 µM (inactive) | > 100 µM (inactive) | > 100 µM (inactive) | > 100 µM (inactive) | > 100 µM (inactive) | > 100 µM (inactive) | > 100 µM (inactive)
14 | OCC(O)COCn1cc(Cn2ncc3c(NCc4ccccc4)ncnc32)nn1 (stereo not drawn) | > 100 µM (inactive) | > 100 µM (inactive) | > 100 µM (inactive) | > 100 µM (inactive) | > 100 µM (inactive) | > 100 µM (inactive) | > 100 µM (inactive) | > 100 µM (inactive) | > 100 µM (inactive) | > 100 µM (inactive) | > 100 µM (inactive) | > 100 µM (inactive) | > 100 µM (inactive) | > 100 µM (inactive) | > 100 µM (inactive) | > 100 µM (inactive) | > 100 µM (inactive) | 18.7 µM (inactive) | > 100 µM (inactive) | –
15 | N#C[BH2-][n+]1cn(C2CC(O)C(COP(=O)(O)OC3CC(n4c[n+]([BH2-]C#N)c5c(=O)[nH]c(N)nc54)OC3CO)O2)c2nc(N)[nH]c(=O)c21 (stereo not drawn) | > 100 µM (inactive) | > 100 µM (inactive) | – | > 100 µM (inactive) | > 100 µM (inactive) | > 100 µM (inactive) | > 100 µM (inactive) | > 100 µM (inactive) | > 100 µM (inactive) | > 100 µM (inactive) | > 100 µM (inactive) | > 100 µM (inactive) | > 100 µM (inactive) | > 100 µM (inactive) | > 100 µM (inactive) | > 100 µM (inactive) | > 100 µM (inactive) | > 100 µM (inactive) | > 100 µM (inactive) | 10 µM (inactive)
